The subject of the assay is normal human epidermal cells. Kind of assay: glutathione production promotion activity (glutathione reductase recycling assay). Type of assay: cell-based. Conditions: for GSH (pmol/μg protein) Mean: cultivation for 24 hours. From the text: The equal amount mixture obtained in Example 1 was used as a sample and evaluated for glutathione production promotion activity by the following procedure.
Specifically, normal human epidermal cells were inoculated to a 96-well microplate housing a normal human epidermic keratinocyte growth medium (trade name HuMedia KG2, supplied by Kurabo Industries Ltd.) in a cell density of 2.0×10^4 cells per 96 wells.
Twenty-four (24) hours after the inoculation, the medium was exchanged with a normal human epidermic keratinocyte growth medium (trade name HuMedia KB2, supplied by Kurabo Industries Ltd.) containing the sample in a predetermined concentration, and the cultivation was continued.
As a positive control, a cultivation was performed by a procedure similar to above, except for using, instead of the sample, Nahlsgen (DL-2-amino-4-[(RSp)-(3-carboxymethylphenoxy)(methoxy)phosphoryl]butanoic acid, trade name GGsTop, supplied by Wako Pure Chemical Industries, Ltd.).
As a blank, a cultivation was performed a procedure similar to above, except for not using the sample.
After cultivation for 24 hours, the cells were disrupted by ultrasonication using a phosphoric acid buffer containing 100-μM phenylmethylsulfonyl fluoride, and the total amount of glutathione was quantitatively measured by the after-mentioned glutathione reductase recycling assay.
Specifically, the disrupted cell suspension was combined with reduced nicotinamide adenine dinucleotide phosphate and glutathione reductase, followed by reaction at 37° C. for 10 minutes.
Next, 0.1 M phosphate buffer solution (containing 0.5 M EDTA, pH 7.5) containing 10 mM 5,5′-dithiobis(2-nitrobenzoic acid) was added, the absorbance (at 450 nm) was measured immediately after addition, and after 30 minute-incubation, and the difference between two measurements ((absorbance after 30 minute-incubation)−(absorbance immediately after addition)) was defined as an index for glutathione synthesis quantity.
The total amount of glutathione in the disrupted cell suspension was calculated on the basis of a calibration curve plotted using oxidized glutathione. The protein content in the disrupted cell suspension was quantitatively determined using the Pierce Microplate BCA Protein Assay Kit (Thermo SCIENTIFIC). The glutathione synthesis quantity was evaluated for differences from the untreated specimen (blank) and from the positive control by a significant difference test using Student's t-test.

Here are results for two compounds from patent US10774098B2, “Nahlsgen optical resolution method” (KYOTO UNIVERSITY, priority 2016, dated 2020).

On to “equal-amount mixture of D-2-amino-4-[(Rp)-(3-carboxymethylphenoxy)(methoxy)phosphoryl]butanoic acid monohydrate and L-2-amino-4-[(Sp)-(3-carboxymethylphenoxy)(methoxy)phosphoryl]butanoic acid monohydrate [Example 1]”, for which the “GSH (pmol/μg protein) Mean” value came to 44.2 pmol/μg protein (Conc. 2.00 μmol/L), 48.1 pmol/μg protein (Conc. 10.00 μmol/L), 38.0 pmol/μg protein (Conc. 50.00 μmol/L) and 41.5 pmol/μg protein (Conc. 250.00 μmol/L). In addition, the “glutathione (GSH) amount compared with the blank (untreated cells)” value (result in words, summary of Table 1) is recorded as “significantly increased glutathione (GSH) amount as well as or better than the cells treated with Nahlsgen”.

For the compound `COP(=O)(CC[C@H](N)C(=O)O)Oc1cccc(CC(=O)O)c1` (mixture of isomers) [Nahlsgen, DL-2-amino-4-[(RSp)-(3-carboxymethylphenoxy)(methoxy)phosphoryl]butanoic acid], the “GSH (pmol/μg protein) Mean” value (Conc. 10.00 μmol/L) was determined as 44.7 pmol/μg protein.
